Experiments:
Jurkat cells = experiment: MTT viability assay, Jurkat cells; format: cell-based, human; details: highest concentrations tested
Description: (§1) U87 cells (1 × 10^4 cells/well, 48 well plate) or Jurkat cells (5 × 10^3 cells/well, 96 well U-bottom plate) were treated with serial dilutions of Cyp inhibitors as indicated. After 48 h, the media was aspirated and replaced with fresh Cyp inhibitor dilutions and the lentiviral vector (MOI: 0.25) for a further 48 h. Experiments were carried out in triplicate.
(§2) 3-(4,5-Dimethyl-2-thiazolyl)-2,5-diphenyl-2H-tetrazolium bromide (MTT) assay was performed on U87 cells, Jurkat cells or Huh7 cells treated with Cyp inhibitors as indicated. At the time point indicated, 10% v/v MTT (stock at 5 mg/mL in PBS) (475989, Sigma Aldrich) was added, and cells were incubated for 1 - 2 h at 37 °C. 100 μL solubilisation solution (10% SDS and 0.01 M HCl) was added, and after overnight incubation at 37 °C, absorbance was measured at 570 nm. Experiments were carried out in triplicate.

U87 cells = experiment: MTT viability assay, U87 cells; format: cell-based; details: U87, 10 μM
Description: as §1, §2

THP-1 cell proteome = experiment: Mass spectrometry-based proteomics in THP-1 cells; format: cell-based, human; details: THP-1, 5 μM, 72 h
Description: THP-1 Dual cells were treated with 5 μM Cyp inhibitor or DMSO for 72 h. After washing with PBS, cells were lysed (5% SDS, 5 mM tris(2-carboxyethyl)phosphine (TCEP), 10 mM chloroacetamide (CAA), 100 mM Tris, 1% Triton X-100, pH 8.5) and boiled for 10 min followed by sonication in a water bath for 10 min. Protein concentration was estimated by BCA assay (Thermo Fisher Scientific). Protein digestion was automated on a KingFisher APEX robot (Thermo Fisher Scientific) in a 96-well format using a protocol from Koenig et al.[83] with minor modifications. […]
Peptides were then dissolved in 0.5% TFA before liquid chromatography–tandem mass spectrometry (MS/MS) analysis. The mixture of tryptic peptides was analysed using an Ultimate3000 high-performance liquid chromatography system coupled online to an Eclipse mass spectrometer (Thermo Fisher Scientific). […]
All raw files were analysed by DIA-NN v1.8.1[84], searching against library generated automatically using Human reference proteome (UniProt) and standard settings: peptides from 7 to 30 amino acids, max number of missed cleavages of 1, oxidation (M) and protein-acetylation as only variable modifications. The data files generated by DIA-NN were analysed using Perseus version 2.0.10.0[85]. […]

CypA = target: T1, CypA (Homo sapiens, UniProt P62937); experiment: CypA degradation in Jurkat cells by immunoblot; format: cell-based; details: for effect on CypA levels in the absence of PROTAC: Jurkat, MLN4924 1 μM 6 h or VHLi 50 μM
T1 construct: endogenous in cells; host or cells: Jurkat; also Calu-3, THP-1, MDMs, U87, Huh7, primary human CD4+ T cells
T1 sequence (P62937 whole entry): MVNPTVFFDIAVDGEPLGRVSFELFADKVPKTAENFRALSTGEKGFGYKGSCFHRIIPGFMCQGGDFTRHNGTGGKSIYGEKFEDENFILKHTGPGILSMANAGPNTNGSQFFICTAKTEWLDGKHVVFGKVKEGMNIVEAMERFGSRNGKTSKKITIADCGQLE
Description: (§3) U87 cells (5 × 10^4 cells/well, 12 well plate), Huh7 cells (1 × 10^5 cells/well, 12 well plate), Calu-3 cells (1 × 10^5 cells/well, 12 well plate), Jurkat cells (5 × 10^5 cells/mL, 24 well plate, 1 mL/well), THP-1 Dual cells (4 × 10^5 cells/mL, 24 well plate, 1 mL/well), primary MDMs (confluent well), or primary resting/activated T cells (1-2 × 10^6 cells/well, 96 well plate) were treated with 5 μM Cyp-PROTAC or DMSO for 48 h. […] MLN4924 was washed out before the addition of Cyp-PROTAC, but VHLi was kept in for the duration of the experiment. In competitor experiments, Jurkat cells were treated with 10 μM TWH106 and 1 μM Cyp-PROTAC simultaneously for 48 h. For the time course experiments, Jurkat cells were treated with 5 μM Cyp inhibitor or DMSO and cells were harvested at indicated time points. For the titration experiments, Jurkat cells were treated with 0.01 – 10 μM Cyp inhibitor or DMSO for 24 h or 48 h. Before harvesting for immunoblot, cells were washed twice in PBS.
(§4) Cells were lysed in RIPA buffer (50 mM Tris pH 8.0, 150 mM sodium chloride, 1.0% Triton X-100, 0.5% sodium deoxycholate, 0.1% sodium dodecyl sulphate (SDS)) supplemented with protease inhibitors (cOmplete mini, EDTA-free, Roche) and phosphatase inhibitors (PhosSTOP, Roche). After 10 min incubation on ice, samples were centrifuged (16000 × g, 10 min, 4 °C), and the supernatant protein content was determined using Pierce^TM BCA Protein Assay Kit (Thermo Fisher Scientific). Samples were combined with 4x Laemmli sample buffer (200 mM Tris pH 6.8, 40% glycerol, 8% SDS, 0.4% Bromophenol Blue) and the appropriate amount of RIPA buffer to normalise protein concentrations of samples and boiled for 5 min. Proteins were separated by SDS-PAGE on 15% polyacrylamide gels and transferred onto nitrocellulose membrane using the Trans-Blot Turbo Transfer System (Bio-Rad). Blots were blocked in 5% milk in PBS-Tween for 1 h and incubated with primary antibodies in 5% milk in PBS-Tween overnight. After washing in PBS-Tween, blots were incubated with IRDye® fluorescent secondary antibodies (LI-COR) for 1 h, washed in PBS-Tween, then PBS, and visualised on an LI-COR Odyssey imaging system. Uncropped and unprocessed scans are provided in the Source Data file (main figures) and in the Figshare research data repository 10.6084/m9.figshare.c.7387381 (supplementary figures). […] Densitometry analysis was performed using ImageJ (v2.14.0), and normalised protein densities were calculated by normalisation to β-actin loading control and untreated control as stated. […]
DC50s and Dmaxs were calculated from sigmoidal (4-parameter logistic) fits, mean (n = 2 independent experiments).

N-truncated CypB = N-truncated CypB (Homo sapiens, UniProt P23284); experiment: SPR against N-truncated CypB (immobilised on CM5 chip)
Sequence of N-truncated CypB (P23284 34-212): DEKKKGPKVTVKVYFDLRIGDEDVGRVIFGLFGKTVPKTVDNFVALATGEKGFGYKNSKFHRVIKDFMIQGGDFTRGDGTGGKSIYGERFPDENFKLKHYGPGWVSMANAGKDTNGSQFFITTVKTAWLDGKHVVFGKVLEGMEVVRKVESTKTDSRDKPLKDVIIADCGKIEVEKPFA

CypB = target: T2, CypB (Homo sapiens, UniProt P23284); experiment: CypB levels in Jurkat cells by immunoblot; format: cell-based
T2 construct: endogenous in cells; host or cells: Jurkat
T2 sequence (P23284 34-216): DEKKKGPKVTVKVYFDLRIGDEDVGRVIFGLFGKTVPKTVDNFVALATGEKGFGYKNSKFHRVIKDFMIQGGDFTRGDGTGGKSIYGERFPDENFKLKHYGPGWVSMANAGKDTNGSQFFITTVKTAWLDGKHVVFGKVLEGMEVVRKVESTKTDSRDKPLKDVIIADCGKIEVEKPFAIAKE
Description: as §3, with “For the time course experiments, Jurkat cells were treated with 5 μM Cyp inhibitor or DMSO and cells were harvested at indicated time points. For the titration experiments, Jurkat cells were treated with 0.01 – 10 μM Cyp inhibitor or DMSO for 24 h or 48 h. Before harvesting for immunoblot, cells were washed twice in PBS.” left out
Cells were lysed in RIPA buffer (50 mM Tris pH 8.0, 150 mM sodium chloride, 1.0% Triton X-100, 0.5% sodium deoxycholate, 0.1% sodium dodecyl sulphate (SDS)) supplemented with protease inhibitors (cOmplete mini, EDTA-free, Roche) and phosphatase inhibitors (PhosSTOP, Roche). After 10 min incubation on ice, samples were centrifuged (16000 × g, 10 min, 4 °C), and the supernatant protein content was determined using Pierce^TM BCA Protein Assay Kit (Thermo Fisher Scientific). […] Densitometry analysis was performed using ImageJ (v2.14.0), and normalised protein densities were calculated by normalisation to β-actin loading control and untreated control as stated. […]

HIV-1 NL4.3 = experiment: Wild-type HIV-1 spreading infection in activated primary CD4+ T cells
Description: NL4.3 stocks were produced by transfection of HEK293T cells in 150 cm^2 flasks with 9 μg pNL4.3 using 60 μL Fugene 6 (E2692, Promega) according to the manufacturer’s instructions. Supernatants were harvested at 48 and 72 h, filtered, DNase treated, purified and concentrated by ultracentrifugation through a 20% sucrose cushion and resuspended in RPMI with 10% FBS. Viral titres were determined by measuring reverse transcriptase (RT) activity in mU by SG-PERT assay[86].
To infect activated primary CD4+ T cells with HIV-1, cells were mixed and incubated with HIV-1 NL4.3 virus (2000 mU RT/10^6 cells) for 4 h at 37 °C. […] After exposure to the virus, T cells were washed twice in PBS by centrifugation (400 × g, 5 min) and resuspended in fresh culture medium. […]
For primary T cell infection experiments, cells were washed in PBS and stained with fixable Zombie R685 Live/Dead dye (423119, BioLegend, 1:500) for 5 min at 37 °C. […] Intracellular CypA was detected by incubating permeabilised cells with CypA antibody (clone 1F4-1B5, ab58144, Abcam, 1:1000) for 30 min, followed by washing (PBS) and 15 min incubation with secondary anti-mouse AlexaFluor488- or AlexaFluor647-tagged antibody. After washing with PBS (700 × g, 5 min, 4 °C) to remove excess antibodies, data were acquired on a NovoSampler Pro (Agilent) and analysed using FlowJo v10.10 (Tree Star) or NovoExpress 1.5.0 (Agilent).

HCV JFH-1 replicon = experiment: HCV JFH-1 subgenomic replicon (luciferase) in Huh7 cells; format: cell-based; details: Huh7, 5 μM pretreatment, washed out, not readded
Description: HCV JFH-1 subgenomic replicon (SGR) (pFKI389Luc/NS3-3’_dg_JFH, previously described)[87] plasmid DNA (10 μg) was linearised by digestion with MluI, and purified linearised DNA (1 μg) was used as a template for in vitro transcription, according to the MEGAscript T7 Transcription Kit instructions (Invitrogen). RNA was resuspended in nuclease-free water at a concentration of 1 μg/μL, aliquoted, and stored at − 80 °C.
HCV SGR RNA (5 μg or 1 μg) was electroporated into 2 × 10^6 or 2 × 10^5 Huh7 cells, respectively, using a Neon transfection system (Thermo Scientific). Single-cell suspensions were washed with PBS and resuspended in 100 μL or 10 μL of Buffer R, respectively. Resuspended cells were mixed with RNA and loaded into a Neon Tip and electroporated using the Neon Transfection system (1400 V, 20 ms, 1 pulse) and resuspended in 12 mL or 1.2 mL of media, respectively, prior to seeding in 96 well plates at a density of ~2 × 10^4 cells/well. […] Experiments were carried out in triplicate. Firefly luciferase activity was measured on a Glomax (Promega) at 4 h post electroporation (hpe) and 48 hpe using the SteadyGlo reagent (Promega) according to the manufacturer’s instructions. Data at 48 hpe were normalised to the input luciferase signal at 4 hpe.

full-length human CypA = full-length human CypA (Homo sapiens, UniProt P62937); experiment: SPR against CypA (immobilised on CM5 chip)
Sequence of full-length human CypA (P62937 whole entry): as the sequence (P62937 whole entry) above

CypA and CypB = CypA and CypB immunoblot in Jurkat cells treated with CsA-based PROTAC JW4-10; format: cell-based, human
Description: as §3
as §4, with “(Bio-Rad).” for “(Bio-Rad). Blots were blocked in 5% milk in PBS-Tween for 1 h and incubated with primary antibodies in 5% milk in PBS-Tween overnight. After washing in PBS-Tween, blots were incubated with IRDye® fluorescent secondary antibodies (LI-COR) for 1 h, washed in PBS-Tween, then PBS, and visualised on an LI-COR Odyssey imaging system. Uncropped and unprocessed scans are provided in the Source Data file (main figures) and in the Figshare research data repository 10.6084/m9.figshare.c.7387381 (supplementary figures).”

## C[C@@H]1NC(=O)[C@H](Cc2ccc([N+](=O)[O-])cc2)NC(=O)C/C=C/c2ccc3ccc(nc3c2)[C@@H](C)OC(=O)[C@@H]2CCCN(N2)C1=O [TWH106]
Jurkat cells
  cell viability (MTT): toxic
U87 cells
  cell viability (MTT): slightly toxic
THP-1 cell proteome
  effect on CypA in proteomics: did not affect CypA levels
CypA; Jurkat cells, 5 μM, up to 6 days
  effect on CypA protein levels, time course: did not reduce CypA levels except a small decrease after 6 days
CypA; Jurkat cells, 0.01 – 10 μM, 24 h and 48 h
  effect on CypA levels, dose response: mild CypA loss only at 10 µM and after 24 hours
N-truncated CypB; CypB KD, SPR equilibrium analysis, N-truncated CypB, mean of two independent experiments ± SD
  Kd: 139 ± 24 nM
N-truncated CypB; CypB dissociation constant (KD) from sigmoid fit, representative experiment, one of two independent experiments, Supplementary Fig. 3
  Kd: 163 nM
N-truncated CypB; SPR KD CypB vs CypA
  lower affinity for N-truncated CypB compared to CypA: 2-3 fold
CypB; 5 μM, 6 days
  effect on CypB levels, time course: most effectively reduced
CypB; 0.01–10 μM, 48 h
  effect on CypB levels, dose response: dose-dependent decrease in CypB
HIV-1 NL4.3; 5 μM 48 h pretreatment, not readded after infection
  antiviral activity, pretreatment only: abrogated
HIV-1 NL4.3; continuous treatment 1 μM or 5 μM
  antiviral activity (Gag+ cells, viral particles in supernatant): antiviral
HCV JFH-1 replicon
  antiviral activity against HCV replicon, pretreatment only: abrogated
full-length human CypA; CypA KD, SPR equilibrium analysis, full-length CypA, mean of two independent experiments ± SD
  Kd: 53 ± 5 nM
full-length human CypA; CypA dissociation constant (KD) from sigmoid fit, representative experiment, one of two independent experiments, Supplementary Fig. 2
  Kd: 48 nM

## Cc1ncsc1-c1ccc(CNC(=O)[C@@H]2C[C@@H](O)CN2C(=O)[C@@H](NC(=O)C2(C#N)CC2)C(C)(C)C)cc1 [VH298, reference compound]
CypA
  effect on CypA levels in the absence of PROTAC: did not impact CypA levels

## CC[C@@H]1NC(=O)[C@H]([C@H](O)[C@H](C)C/C=C/CCCCC(=O)N[C@H](C(=O)N2C[C@H](O)C[C@H]2C(=O)N[C@@H](C)c2ccc(-c3scnc3C)cc2)C(C)(C)C)N(C)C(=O)[C@H](C(C)C)N(C)C(=O)[C@H](CC(C)C)N(C)C(=O)[C@H](CC(C)C)N(C)C(=O)[C@@H](C)NC(=O)[C@H](C)NC(=O)[C@H](CC(C)C)N(C)C(=O)[C@H](C(C)C)NC(=O)[C@H](CC(C)C)N(C)C(=O)CN(C)C1=O [JW4-10]
CypA and CypB; 5 μM, 48 h
  degradation of CypA and CypB: degraded both CypA and CypB
CypA and CypB; 50 µM VHLi 2 h before 5 µM PROTAC
  rescue by excess VHL inhibitor VH298 pretreatment: rescued CypA, but not CypB
CypA and CypB; MLN4924 1 μM 6 h before 5 μM PROTAC
  rescue by MLN4924 pretreatment: fully rescued CypA, but not CypB

## NS(=O)(=O)OC[C@@H]1C[C@@H](n2ccc3c(N[C@H]4CCc5ccccc54)ncnc32)C[C@@H]1O [MLN4924, reference compound]
CypA
  effect on CypA levels in the absence of PROTAC: no impact on CypA levels

Source: paper PMC11811207, “Macrocycle-based PROTACs selectively degrade cyclophilin A and inhibit HIV-1 and HCV” (Nature Communications, 2025)
